The source of these data is patent US6593319B1, “Fusidic acid derivatives” (Leo Pharmaceutical Products, Ltd. A/S, priority 2001, dated 2003).

In series [1] the test system is S. aureus/ATCC 29213. As to the kind of experiment: MIC, microtitter plates, liquid medium containing broth. The settings on record: FusS. It counts as cell-based. As to the method:
(§1) In vitro investigations have evidenced high potency of compounds of the invention against several bacteria including staphylococci, streptococci, corynebacteriae and mycobacteriae. […] The biological tests are conducted on microtitter plates using liquid medium containing broth.

Series [2] relates to N. meningitidis/K1. The series is described as above. Type of series: cell-based. On the procedure:
as §1

Series [3] deals with Streptococcus - gr.B/61. The series is described as above. It counts as cell-based. On the procedure: as §1
Series [4] concerns E. faecalis/V583 P. Cour. Described as above. It counts as cell-based. The settings on record: VanR. As to the method:
as §1

Series [5] deals with Streptococcus - gr.C/68. The series is described as above. It counts as cell-based. As to the method:
as §1

In series [6] the test system is S. aureus/54 USA-br. Described as above. It counts as cell-based. Conditions: FusR, MSSA. As to the method:
as §1

Series [7] deals with S. aureus/22 DK. Described as above. Type of series: cell-based. Conditions: FusS, MSSA. As to the method: as §1
Series [8] has as its system Streptococcus - gr.A/67011. Described as above. It counts as cell-based. On the procedure: as §1
Series [9] deals with S. aureus/1 Aus-pe. Described as above. Type of series: cell-based. The settings on record: FusS, MRSA. As to the method: as §1
For series [10], the system named is M. tuberculosis/R 498. The description is as above. It counts as cell-based. On the procedure:
as §1

Series [11] relates to P. acnes/1060. The series is described as above. Type of series: cell-based. On the procedure: as §1
The test system of series [12] is C. diphteria/62001. Described as above. Type of series: cell-based. On the procedure:
as §1

Series [13] has as its system Staphylococcus/379-2. The series is described as above. Conditions: Staphylococcus/379-2, coagulase negative, FusR. Type of series: cell-based. As to the method: as §1
Series [14] deals with Staphylococcus/291-2. The series is described as above. Type of series: cell-based. Conditions: Staphylococcus/291-2, coagulase negative, FusS. On the procedure:
as §1

In series [15] the test system is N. gonorrhoea/C1. The description is as above. Type of series: cell-based. On the procedure:
as §1

The test system of series [16] is Streptococcus - gr.G/59. The description is as above. Type of series: cell-based. On the procedure: as §1
In series [17] the test system is S. aureus Leoid CJ234(R). As to the kind of experiment: MIC, agar diffusion method (European Pharmacopoeia 3rd Ed.). The settings on record: MRSA and Rifampicin resistant. Type of series: cell-based. On the procedure:
(§2) The antibacterial activity of some of these compounds relative to fusidic acid appears from Table 2 showing MIC values for compounds of the invention. The method used is recommended by the European Pharmacopoeia 3rd Ed. (1997) for testing the potency of antibiotics. It is an agar diffusion method where the same volume of the tested solution is added to cavities in agar. The inhibition zones are a function of the concentration of the fusidic acid analogue used. All assays are run with fusidic acid (1) as the reference substance. The results in Table 2 differ from those of Table 1 due to the different experimental methods used.

Series [18] has as its system S. aureus Leo id. CJ232. The series is described as above. Type of series: cell-based. The settings on record: S. aureus Leo id. CJ232, MRSA. On the procedure:
as §2

The test system of series [19] is Strep. faecium Leo id. E119(P). The series is described as above. It counts as cell-based. The settings on record: Penicillin resistant. On the procedure: as §2
Series [20] deals with Strep. epidermis A. ATCC12228. Described as above. It counts as cell-based. On the procedure: as §2
Series [21] concerns S. aureus ATCC6538P. Described as above. It counts as cell-based. As to the method: as §2
For series [22], the system named is Strep. faecalis ATCC10541. The description is as above. It counts as cell-based. As to the method: as §2
Series [23] concerns S. aureus ATCC2977. The series is described as above. Type of series: cell-based. On the procedure: as §2
Series [24] deals with Strep. sp. Gr.B Leo id. EF6. The description is as above. Type of series: cell-based. As to the method:
as §2

The nature of series [25]: Stability in ethanol solution (retained activity). The settings on record: solution in ethanol stored at 0° C. for 1 month. Type of series: physicochemical.
The conditions of series [26]: relative to fusidic acid; reduction of C-24/C-25 and C-17/C-20 double bonds; cited from earlier work.
Where [27] appears, read: read-out: MIC values (concentrations in μg/ml required for 90% inhibition).
The mark [28] stands for this setting: Enterococcus faecalis, read-out: MIC values (concentrations in μg/ml required for 90% inhibition).
The mark [29] stands for this setting: Staphylococcus aureus, read-out: MIC values (concentrations in μg/ml required for 90% inhibition).

Values after ≈ are worked out from the molar mass of the structure shown.

Turning to `CC(=O)OC1CC2(C)C(CC(O)C3C4(C)CCC(O)C(C)C4CCC32C)C1C(CCC=C(C)C)C(=O)O` [Compound 101, 17(S),20(S)-Dihydrofusidic Acid], the “MIC values (concentrations in μg/ml required for 90% inhibition)” value in series [1] (MSSA) was 1 µg/mL; in series [2] it was 1 µg/mL; in series [3], over 64 µg/mL; in [4], 16 µg/mL; in series [5], 4 µg/mL; in [6] it was 8 µg/mL. Moreover, the “MIC values (concentrations in μg/ml required for 90% inhibition)” value amounted to 1 µg/mL in [7]; 64 µg/mL in [8]; 1 µg/mL in series [9]; 16 µg/mL in series [10]; 0.5 µg/mL in series [11]; 0.063 µg/mL in series [12]. The “MIC values (concentrations in μg/ml required for 90% inhibition)” value in series [13] was found to be 64 µg/mL; in series [14] it was 1 µg/mL; in series [15] it was 4 µg/mL; in series [16], 8 µg/mL; in series [17], 0.001 µg/mL; in series [18], 0.003 µg/mL. Moreover, the “MIC values (concentrations in μg/ml required for 90% inhibition)” value in series [19] is 1.2 µg/mL; in [20], 0.001 µg/mL; in series [21], 0.002 µg/mL; in series [22], 3.7 µg/mL; in series [23] it was 0.001 µg/mL; in series [24], 3.5 µg/mL. The same compound returned a retained initial activity in series [25] of over 80%.

Turning to `CC(=O)O[C@H]1C[C@@]2(C)[C@@H](C[C@@H](O)[C@H]3[C@@]4(C)CC[C@@H](O)[C@@H](C)[C@@H]4CC[C@@]32C)/C1=C(\CCC=C(C)C)C(=O)O` [Fusidic acid (1), Fusidic acid], the MIC in series [1] (Staphylococcus aureus, ATCC 29213 / MSSA, read-out: MIC values (concentrations in μg/ml required for 90% inhibition)) amounted to 1 µg/mL (≈ 1.94 µM); in [2] (Neisseria meningitidis, read-out: MIC values (concentrations in μg/ml required for 90% inhibition)) it was 0.25 µg/mL (≈ 0.484 µM); in [3] (setting [27]), 32 µg/mL (≈ 61.9 µM); in series [4] (setting [28]), 16 µg/mL (≈ 31 µM); in [5] (setting [27]), 2 µg/mL (≈ 3.87 µM); in series [6] (setting [29]), 8 µg/mL (≈ 15.5 µM). In addition, the MIC was 0.5 µg/mL (≈ 0.968 µM) in series [7] (setting [29]); 16 µg/mL (≈ 31 µM) in [8] (setting [27]); 1 µg/mL (≈ 1.94 µM) in series [9] (setting [29]); over 16 µg/mL in [10] (Mycobacterium tuberculosis, read-out: MIC values (concentrations in μg/ml required for 90% inhibition)); 0.125 µg/mL (≈ 0.242 µM) in [11] (Cutibacterium acnes, read-out: MIC values (concentrations in μg/ml required for 90% inhibition)); 0.063 µg/mL (≈ 0.122 µM) in [12] (setting [27]). For the same compound, the MIC is 64 µg/mL (≈ 124 µM) in series [13] (setting [27]); 1 µg/mL (≈ 1.94 µM) in [14] (setting [27]); 1 µg/mL (≈ 1.94 µM) in series [15] (setting [27]); 4 µg/mL (≈ 7.74 µM) in [16] (setting [27]); 0.01 µg/mL (≈ 0.0194 µM) in [17] (setting [29]); 0.012 µg/mL (≈ 0.0232 µM) in series [18] (setting [29]). The MIC in series [19] (Enterococcus faecium, read-out: MIC values (concentrations in μg/ml required for 90% inhibition)) was 2.7 µg/mL (≈ 5.23 µM); in series [20] (setting [27]), 0.01 µg/mL (≈ 0.0194 µM); in series [21] (setting [29]), 0.013 µg/mL (≈ 0.0252 µM); in [22] (setting [28]), 4.9 µg/mL (≈ 9.48 µM); in series [23] (setting [29]) it was 0.01 µg/mL (≈ 0.0194 µM); in series [24] (setting [27]), 4.9 µg/mL (≈ 9.48 µM). Also, the retained initial activity result in [25] was “about 70%”.

On to tetrahydrofusidic acid, for which the antibacterial activity result in series [26] was “almost complete loss of activity”.
